The values below are quoted from earlier work in patent US20130012613A1, “METHOD FOR SYNTHESIZING CALIXARENE AND/OR CYCLODEXTRIN COPOLYMERS, TERPOLYMERS AND TETRAPOLYMERS, AND USES THEREOF” (Drug Research Technology Transfer LLC, priority 2009, published 2013).

Values after ≈ are worked out from the molar mass of the structure shown.

The conditions of this series: native cyclodextrins.

For `OC[C@H]1O[C@@H]2O[C@H]3[C@H](O)[C@@H](O)[C@@H](O[C@H]4[C@H](O)[C@@H](O)[C@@H](O[C@H]5[C@H](O)[C@@H](O)[C@@H](O[C@H]6[C@H](O)[C@@H](O)[C@@H](O[C@H]7[C@H](O)[C@@H](O)[C@@H](O[C@H]1[C@H](O)[C@H]2O)O[C@@H]7CO)O[C@@H]6CO)O[C@@H]5CO)O[C@@H]4CO)O[C@@H]3CO` [alpha-CD, alpha-cyclodextrin], the solubility in water was 127 mg/mL (≈ 131 mM).
As to `OC[C@H]1O[C@@H]2O[C@H]3[C@H](O)[C@@H](O)[C@@H](O[C@H]4[C@H](O)[C@@H](O)[C@@H](O[C@H]5[C@H](O)[C@@H](O)[C@@H](O[C@H]6[C@H](O)[C@@H](O)[C@@H](O[C@H]7[C@H](O)[C@@H](O)[C@@H](O[C@H]8[C@H](O)[C@@H](O)[C@@H](O[C@H]1[C@H](O)[C@H]2O)O[C@@H]8CO)O[C@@H]7CO)O[C@@H]6CO)O[C@@H]5CO)O[C@@H]4CO)O[C@@H]3CO` [beta-CD, beta-cyclodextrin], the solubility in water is 18.8 mg/mL (≈ 16.6 mM).
`OC[C@H]1O[C@@H]2O[C@H]3[C@H](O)[C@@H](O)[C@@H](O[C@H]4[C@H](O)[C@@H](O)[C@@H](O[C@H]5[C@H](O)[C@@H](O)[C@@H](O[C@H]6[C@H](O)[C@@H](O)[C@@H](O[C@H]7[C@H](O)[C@@H](O)[C@@H](O[C@H]8[C@H](O)[C@@H](O)[C@@H](O[C@H]9[C@H](O)[C@@H](O)[C@@H](O[C@H]1[C@H](O)[C@H]2O)O[C@@H]9CO)O[C@@H]8CO)O[C@@H]7CO)O[C@@H]6CO)O[C@@H]5CO)O[C@@H]4CO)O[C@@H]3CO` [gamma-CD, gamma-cyclodextrin]: the solubility in water was 236 mg/mL (≈ 182 mM).
